Laboratory results reported in ChEMBL document CHEMBL2440080, “Synthesis and biological evaluation of novel acylhydrazone derivatives as potential antitumor agents” (Bioorg Med Chem, 2013).

Columns and labels:
Assay type in all cases: functional
CAKI-1 = experiment: Cytotoxicity against human CAKI-1 cells after 48 hrs by sulforhodamine B assay; settings: CAKI-1, 48 h
T47D = experiment: Cytotoxicity against human T47D cells after 48 hrs by sulforhodamine B assay
BT-549 = experiment: Cytotoxicity against human BT549 cells after 48 hrs by sulforhodamine B assay; settings: BT-549, 48 h
[1] = Cytotoxicity against human Hs 578T cells after 48 hrs by sulforhodamine B assay
MDA-MB-435 = experiment: Cytotoxicity against human MDA-MB-435 cells after 48 hrs by sulforhodamine B assay; settings: MDA-MB-435, 48 h
NCI/ADR-RES = experiment: Cytotoxicity against human NCI/ADR-RES cells after 48 hrs by sulforhodamine B assay
MDA-MB-231 = experiment: Cytotoxicity against human MDA-MB-231 cells after 48 hrs by sulforhodamine B assay; settings: MDA-MB-231, 48 h
DU-145 = experiment: Cytotoxicity against human DU145 cells after 48 hrs by sulforhodamine B assay; settings: DU-145, 48 h
MCF7 = experiment: Cytotoxicity against human MCF7 cells after 48 hrs by sulforhodamine B assay; settings: MCF7, 48 h
UO-31 = experiment: Cytotoxicity against human UO31 cells after 48 hrs by sulforhodamine B assay; settings: UO-31, 48 h
PC-3 = experiment: Cytotoxicity against human PC3 cells after 48 hrs by sulforhodamine B assay; settings: PC-3, 48 h
SN12C = experiment: Cytotoxicity against human SN12C cells after 48 hrs by sulforhodamine B assay
TK-10 = experiment: Cytotoxicity against human TK10 cells after 48 hrs by sulforhodamine B assay; settings: TK-10, 48 h
ACHN = experiment: Cytotoxicity against human ACHN cells after 48 hrs by sulforhodamine B assay
RXF 393 = experiment: Cytotoxicity against human RXF393 cells after 48 hrs by sulforhodamine B assay; settings: RXF 393, 48 h
A498 = experiment: Cytotoxicity against human A498 cells after 48 hrs by sulforhodamine B assay; settings: A498, 48 h
786-0 = experiment: Cytotoxicity against human 786-0 cells after 48 hrs by sulforhodamine B assay; settings: 786-0, 48 h
OVCAR-8 = experiment: Cytotoxicity against human OVCAR8 cells after 48 hrs by sulforhodamine B assay; settings: OVCAR-8, 48 h
SK-OV-3 = experiment: Cytotoxicity against human SKOV3 cells after 48 hrs by sulforhodamine B assay; settings: SK-OV-3, 48 h
OVCAR-4 = experiment: Cytotoxicity against human OVCAR4 cells after 48 hrs by sulforhodamine B assay; settings: OVCAR-4, 48 h
OVCAR-5 = experiment: Cytotoxicity against human OVCAR5 cells after 48 hrs by sulforhodamine B assay; settings: OVCAR-5, 48 h
IGROV-1 = experiment: Cytotoxicity against human IGROV1 cells after 48 hrs by sulforhodamine B assay; settings: IGROV-1, 48 h
OVCAR-3 = experiment: Cytotoxicity against human OVCAR3 cells after 48 hrs by sulforhodamine B assay; settings: OVCAR-3, 48 h
UACC-257 = experiment: Cytotoxicity against human UACC257 cells after 48 hrs by sulforhodamine B assay; settings: UACC-257, 48 h
UACC-62 = experiment: Cytotoxicity against human UACC62 cells after 48 hrs by sulforhodamine B assay; settings: UACC-62, 48 h
SK-MEL-28 = experiment: Cytotoxicity against human SK-MEL-28 cells after 48 hrs by sulforhodamine B assay; settings: SK-MEL-28, 48 h
SK-MEL-5 = experiment: Cytotoxicity against human SK-MEL-5 cells after 48 hrs by sulforhodamine B assay; settings: SK-MEL-5, 48 h
M14 = experiment: Cytotoxicity against human M14 cells after 48 hrs by sulforhodamine B assay; settings: M14, 48 h
SK-MEL-2 = experiment: Cytotoxicity against human SK-MEL-2 cells after 48 hrs by sulforhodamine B assay; settings: SK-MEL-2, 48 h
LOX IMVI = experiment: Cytotoxicity against human LOXIMVI cells after 48 hrs by sulforhodamine B assay
Malme-3M = experiment: Cytotoxicity against human MALME-3M cells after 48 hrs by sulforhodamine B assay
SNB-75 = experiment: Cytotoxicity against human SNB75 cells after 48 hrs by sulforhodamine B assay; settings: SNB-75, 48 h
U-251 = experiment: Cytotoxicity against human U251 cells after 48 hrs by sulforhodamine B assay; settings: U-251, 48 h
SF-539 = experiment: Cytotoxicity against human SF539 cells after 48 hrs by sulforhodamine B assay; settings: SF-539, 48 h
SNB-19 = experiment: Cytotoxicity against human SNB19 cells after 48 hrs by sulforhodamine B assay; settings: SNB-19, 48 h
SF-295 = experiment: Cytotoxicity against human SF295 cells after 48 hrs by sulforhodamine B assay; settings: SF-295, 48 h
SW-620 = experiment: Cytotoxicity against human SW620 cells after 48 hrs by sulforhodamine B assay; settings: SW-620, 48 h
SF-268 = experiment: Cytotoxicity against human SF268 cells after 48 hrs by sulforhodamine B assay; settings: SF-268, 48 h
HT-29 = experiment: Cytotoxicity against human HT-29 cells after 48 hrs by sulforhodamine B assay; settings: HT-29, 48 h
KM12 = experiment: Cytotoxicity against human KM12 cells after 48 hrs by sulforhodamine B assay; settings: KM12, 48 h
HCT-116 = experiment: Cytotoxicity against human HCT116 cells after 48 hrs by sulforhodamine B assay; settings: HCT-116, 48 h
HCT-15 = experiment: Cytotoxicity against human HCT15 cells after 48 hrs by sulforhodamine B assay; settings: HCT-15, 48 h
HCC 2998 = experiment: Cytotoxicity against human HCC2998 cells after 48 hrs by sulforhodamine B assay; settings: HCC 2998, 48 h
NCI-H522 = experiment: Cytotoxicity against human NCI-H522 cells after 48 hrs by sulforhodamine B assay; settings: NCI-H522, 48 h
COLO 205 = experiment: Cytotoxicity against human COLO205 cells after 48 hrs by sulforhodamine B assay; settings: COLO 205, 48 h
NCI-H460 = experiment: Cytotoxicity against human NCI-H460 cells after 48 hrs by sulforhodamine B assay; settings: NCI-H460, 48 h
NCI-H23 = experiment: Cytotoxicity against human NCI-H23 cells after 48 hrs by sulforhodamine B assay; settings: NCI-H23, 48 h
NCI-H322M = experiment: Cytotoxicity against human NCI-H322M cells after 48 hrs by sulforhodamine B assay
HOP-92 = experiment: Cytotoxicity against human HOP92 cells after 48 hrs by sulforhodamine B assay; settings: HOP-92, 48 h
NCI-H226 = experiment: Cytotoxicity against human NCI-H226 cells after 48 hrs by sulforhodamine B assay; settings: NCI-H226, 48 h
[2] = Cytotoxicity against human EKVX cells after 48 hrs by sulforhodamine B assay
HOP-62 = experiment: Cytotoxicity against human HOP62 cells after 48 hrs by sulforhodamine B assay; settings: HOP-62, 48 h
SR = experiment: Cytotoxicity against human SR cells after 48 hrs by sulforhodamine B assay
A549 = experiment: Cytotoxicity against human A549/ATCC cells after 48 hrs by sulforhodamine B assay; settings: A549, 48 h
RPMI-8226 = experiment: Cytotoxicity against human RPMI8226 cells after 48 hrs by sulforhodamine B assay; settings: RPMI-8226, 48 h
MOLT-4 = experiment: Cytotoxicity against human MOLT4 cells after 48 hrs by sulforhodamine B assay; settings: MOLT-4, 48 h
CCRF-CEM = experiment: Cytotoxicity against human CCRF-CEM cells after 48 hrs by sulforhodamine B assay
HL-60(TB) = experiment: Cytotoxicity against human HL-60(TB) cells after 48 hrs by sulforhodamine B assay; settings: HL-60, 48 h
K562 = experiment: Cytotoxicity against human K562 cells after 48 hrs by sulforhodamine B assay; settings: K562, 48 h

Compound: CCN(CC)c1ccc(/C=N/NC(=O)c2cccc(Nc3ccnc(C(F)(F)F)c3)c2)c(O)c1
- GI50 (CAKI-1): 200 nM
- GI50 (T47D): 631 nM
- GI50 (BT-549): 501 nM
- GI50 [1]: 182 nM
- GI50 (MDA-MB-435): 339 nM
- GI50 (NCI/ADR-RES): 1000 nM
- GI50 (MDA-MB-231): 316 nM
- GI50 (DU-145): 251 nM
- GI50 (MCF7): 245 nM
- GI50 (UO-31): 166 nM
- GI50 (PC-3): 741 nM
- GI50 (SN12C): 309 nM
- GI50 (TK-10): 501 nM
- GI50 (ACHN): 245 nM
- GI50 (RXF 393): 398 nM
- GI50 (A498): 479 nM
- GI50 (786-0): 240 nM
- GI50 (OVCAR-8): 398 nM
- GI50 (SK-OV-3): 407 nM
- GI50 (OVCAR-4): 158 nM
- GI50 (OVCAR-5): 501 nM
- GI50 (IGROV-1): 200 nM
- GI50 (OVCAR-3): 794 nM
- GI50 (UACC-257): 275 nM
- GI50 (UACC-62): 251 nM
- GI50 (SK-MEL-28): 115 nM
- GI50 (SK-MEL-5): 224 nM
- GI50 (M14): 229 nM
- GI50 (SK-MEL-2): 407 nM
- GI50 (LOX IMVI): 178 nM
- GI50 (Malme-3M): 339 nM
- GI50 (SNB-75): 257 nM
- GI50 (U-251): 200 nM
- GI50 (SF-539): 263 nM
- GI50 (SNB-19): 339 nM
- GI50 (SF-295): 324 nM
- GI50 (SW-620): 324 nM
- GI50 (SF-268): 100 nM
- GI50 (HT-29): 339 nM
- GI50 (KM12): 398 nM
- GI50 (HCT-116): 126 nM
- GI50 (HCT-15): 126 nM
- GI50 (HCC 2998): 182 nM
- GI50 (NCI-H522): 407 nM
- GI50 (COLO 205): 282 nM
- GI50 (NCI-H460): 200 nM
- GI50 (NCI-H23): 646 nM
- GI50 (NCI-H322M): 200 nM
- GI50 (HOP-92): 1000 nM
- GI50 (NCI-H226): 372 nM
- GI50 [2]: 224 nM
- GI50 (HOP-62): 251 nM
- GI50 (SR): 200 nM
- GI50 (A549): 389 nM
- GI50 (RPMI-8226): 158 nM
- GI50 (MOLT-4): 195 nM
- GI50 (CCRF-CEM): 141 nM
- GI50 (HL-60(TB)): 316 nM

Compound: CCN(CC)c1ccc(/C=N/NC(=O)c2ccc(Nc3ccnc(C(F)(F)F)c3)cc2)c(O)c1
- GI50 (CAKI-1): 251 nM
- GI50 (T47D): 331 nM
- GI50 (BT-549): 501 nM
- GI50 [1]: 219 nM
- GI50 (MDA-MB-435): 490 nM
- GI50 (NCI/ADR-RES): 1000 nM
- GI50 (MDA-MB-231): 398 nM
- GI50 (DU-145): 501 nM
- GI50 (MCF7): 295 nM
- GI50 (UO-31): 57.5 nM
- GI50 (PC-3): 501 nM
- GI50 (SN12C): 363 nM
- GI50 (TK-10): 501 nM
- GI50 (ACHN): 158 nM
- GI50 (RXF 393): 200 nM
- GI50 (A498): 316 nM
- GI50 (786-0): 182 nM
- GI50 (OVCAR-8): 398 nM
- GI50 (SK-OV-3): 234 nM
- GI50 (OVCAR-4): 251 nM
- GI50 (OVCAR-5): 479 nM
- GI50 (IGROV-1): 200 nM
- GI50 (OVCAR-3): 316 nM
- GI50 (UACC-257): 339 nM
- GI50 (UACC-62): 251 nM
- GI50 (SK-MEL-28): 204 nM
- GI50 (SK-MEL-5): 324 nM
- GI50 (M14): 316 nM
- GI50 (SK-MEL-2): 398 nM
- GI50 (LOX IMVI): 158 nM
- GI50 (Malme-3M): 389 nM
- GI50 (SNB-75): 200 nM
- GI50 (U-251): 200 nM
- GI50 (SF-539): 200 nM
- GI50 (SNB-19): 331 nM
- GI50 (SF-295): 263 nM
- GI50 (SW-620): 339 nM
- GI50 (SF-268): 200 nM
- GI50 (HT-29): 282 nM
- GI50 (KM12): 398 nM
- GI50 (HCT-116): 158 nM
- GI50 (HCT-15): 100 nM
- GI50 (HCC 2998): 224 nM
- GI50 (NCI-H522): 251 nM
- GI50 (COLO 205): 275 nM
- GI50 (NCI-H460): 204 nM
- GI50 (NCI-H23): 417 nM
- GI50 (NCI-H322M): 316 nM
- GI50 (HOP-92): 676 nM
- GI50 (NCI-H226): 331 nM
- GI50 [2]: 195 nM
- GI50 (HOP-62): 251 nM
- GI50 (SR): 251 nM
- GI50 (A549): 331 nM
- GI50 (RPMI-8226): 126 nM
- GI50 (K562): 66.1 nM
- GI50 (MOLT-4): 162 nM
- GI50 (CCRF-CEM): 120 nM
- GI50 (HL-60(TB)): 251 nM
